Results published in ChEMBL document CHEMBL1125017, “Potent anticonflict activity and lessening of memory impairment with a series of novel [1]benzothieno[2,3-c]pyridines and 1,2,3,4-tetrahydro[1]benzothieno[2,3-c]pyridines” (J Med Chem, 1990).

What was measured:
[1] = test system: Rattus norvegicus; test: Anticonflict activity measured in male wistar rats; number of shocks received in 5 min at an intravenous dose of 10 mg/kg.; assay type: functional
[2] = test system: Mus musculus; test: Lessening of memory impairment measured in mice; time of latency in seconds at an intravenous dose of 10 mg/kg.; assay type: functional
[3] = target: GABA-A receptor; anion channel; test: Inhibition of [3H]flunitrazepam binding to GABA-A Benzodiazepine receptor of Wistar rat cerebral cortex; assay type: tissue-based
[4] = organism: Mus musculus; test: Lessening of memory impairment by the compound was measured in mice.; assay type: functional
[5] = test system: Rattus norvegicus; test: No of shocks of 5 min was reported after oral administration of a dose of 20 mg/kg; assay type: functional
[6] = test system: Mus musculus; test: No. of mice showing anti-amnesic activity after oral administration of a dose of 20 mg/kg; Number of mice which prolonged latency more than twice the duration of mice administered Scopolamine singly/number of mice tested 4/8; assay type: functional
[7] = test system: Mus musculus; test: No. of mice showing anti-amnesic activity after oral administration of a dose of 5 mg/kg; Number of mice which prolonged latency more than twice the duration of mice administered Scopolamine singly/number of mice tested 4/8; assay type: functional
[8] = test system: Mus musculus; test: No. of mice showing anti-amnesic activity after oral administration of a dose of 40 mg/kg; Number of mice which prolonged latency more than twice the duration of mice administered Scopolamine singly/number of mice tested 6/8; assay type: functional
[9] = test system: Rattus norvegicus; test: No. rats showing anticonflict activity after oral administration of a dose of 40 mg/kg; Number of rats which received shocks more than twice vs shocks received in control rats to that of number of rats tested 4/7; assay type: functional
[10] = test system: Rattus norvegicus; test: No of shocks of 5 min was reported after oral administration of a dose of 40 mg/kg; assay type: functional
[11] = test system: Mus musculus; test: Latency step was determined after oral administration of a dose of 5 mg/kg in 8 mice; assay type: functional
[12] = test system: Rattus norvegicus; test: No. rats showing anticonflict activity after oral administration of a dose of 20 mg/kg; Number of rats which received shocks more than twice vs shocks received in control rats to that of number of rats tested 2/8; assay type: functional
[13] = test system: Mus musculus; test: Latency step was determined after oral administration of a dose of 40 mg/kg in 8 mice.; assay type: functional
[14] = test system: Mus musculus; test: Latency step was determined after oral administration of a dose of 20 mg/kg in 8 mice.; assay type: functional
[15] = test system: Rattus norvegicus; test: No. rats showing anticonflict activity after oral administration of a dose of 10 mg/kg; Number of rats which received shocks more than twice vs shocks received in control rats to that of number of rats tested 25/43; assay type: functional
[16] = test system: Mus musculus; test: […] activity after oral administration of a dose of 5 mg/kg in mice; Number of mice which prolonged latency more than twice the duration of mice administered Scopolamine singly/number of mice tested 1/10; assay type: functional
[17] = test system: Rattus norvegicus; test: No of shocks of 5 min was reported after oral administration of a dose of 5 mg/kg in 43 rats; 25/43; assay type: functional
[18] = test system: Rattus norvegicus; test: Anticonflict activity was measured in male wistar rats; number of shocks received in 5 min at a dose of 3 mg/kg ip; assay type: functional; details: route intraperitoneal
[19] = test system: Rattus norvegicus; test: No of shocks of 5 min was reported after oral administration of a dose of 5 mg/kg in 10 rats; assay type: functional
[20] = test system: Mus musculus; test: No. rats showing anticonflict activity after oral administration of a dose of 20 mg/kg; Number of mice which prolonged latency more than twice the duration of mice administered Scopolamine singly/number of mice tested 3/8; assay type: functional
[21] = test system: Rattus norvegicus; test: No of shocks of 5 min was reported after oral administration of a dose of 40 mg/kg in 9 rats; assay type: functional
[22] = test system: Rattus norvegicus; test: No of shocks of 5 min was reported after oral administration of a dose of 20 mg/kg in 10 rats; assay type: functional
[23] = test system: Rattus norvegicus; test: No. rats showing anticonflict activity after oral administration of a dose of 5 mg/kg; Number of rats which received shocks more than twice vs shocks received in control rats to that of number of rats tested 3/10; assay type: functional
[24] = test system: Rattus norvegicus; test: No. rats showing anticonflict activity after oral administration of a dose of 20 mg/kg; Number of rats which received shocks more than twice vs shocks received in control rats to that of number of rats tested 5/10; assay type: functional
[25] = target: T1, 5-hydroxytryptamine receptor 1A (Rattus norvegicus, UniProt P19327); test: Binding affinity towards 5-hydroxytryptamine 1A receptor in rat brain; assay type: tissue-based
T1 sequence (P19327 whole entry): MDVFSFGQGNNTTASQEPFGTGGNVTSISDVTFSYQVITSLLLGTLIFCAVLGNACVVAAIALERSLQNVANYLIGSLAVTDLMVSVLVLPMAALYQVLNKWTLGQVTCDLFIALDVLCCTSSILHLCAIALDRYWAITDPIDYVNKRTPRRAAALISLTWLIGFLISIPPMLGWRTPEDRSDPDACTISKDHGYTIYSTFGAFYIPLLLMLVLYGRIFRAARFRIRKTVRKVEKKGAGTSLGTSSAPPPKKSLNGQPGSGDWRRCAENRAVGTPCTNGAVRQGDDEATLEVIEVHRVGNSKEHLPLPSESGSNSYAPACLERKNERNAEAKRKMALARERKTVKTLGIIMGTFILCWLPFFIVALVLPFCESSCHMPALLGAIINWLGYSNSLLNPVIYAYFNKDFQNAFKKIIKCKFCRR

[26] = test system: Mus musculus; test: Latency step was determined after oral administration of a dose of 20 mg/kg in 8 mice; assay type: functional
[27] = test system: Mus musculus; test: […] activity after oral administration of a dose of 5 mg/kg; Number of mice which prolonged latency more than twice the duration of mice administered Scopolamine singly/number of mice tested 1/8; assay type: functional
[28] = test system: Rattus norvegicus; test: No. rats showing anticonflict activity after oral administration of a dose of 40 mg/kg; Number of rats which received shocks more than twice vs shocks received in control rats to that of number of rats tested 6/9; assay type: functional
[29] = test system: Mus musculus; test: No. rats showing anticonflict activity after oral administration of a dose of 20 mg/kg; Number of mice which prolonged latency more than twice the duration of mice administered Scopolamine singly/number of mice tested 4/8; assay type: functional
[30] = test system: Mus musculus; test: […] activity after oral administration of a dose of 40 mg/kg; Number of mice which prolonged latency more than twice the duration of mice administered Scopolamine singly/number of mice tested 6/8; assay type: functional
[31] = test system: Rattus norvegicus; test: No. rats showing anticonflict activity after oral administration of a dose of 40 mg/kg; Number of rats which received shocks more than twice vs shocks received in control rats to that of number of rats tested 8/10; assay type: functional
[32] = test system: Mus musculus; test: Latency step was determined after oral administration of a dose of 40 mg/kg in 8 mice; assay type: functional
[33] = test system: Rattus norvegicus; test: No. rats showing anticonflict activity after oral administration of a dose of 20 mg/kg; Number of rats which received shocks more than twice vs shocks received in control rats to that of number of rats tested 6/10; assay type: functional
[34] = test system: Mus musculus; test: Number of mice showing anti-amnesic activity after oral administration of a dose of 5 mg/kg; Number of mice which prolonged latency more than twice the duration of mice administered Scopolamine singly/number of mice tested 2/8; assay type: functional

Row | SMILES | Activity [1] | Activity [2] | further results
1 | CN1CCCN(C(=O)c2cc3c(cn2)sc2ccccc23)CC1.Cl | 3.5 | 40.3 | –
2 | Cl.O=C(c1cc2c(cn1)sc1ccccc12)N1CCNCC1 | 17.8 | 40.7 | –
3 | CC1CN(C(=O)c2cc3c(cn2)sc2ccccc23)CCN1.Cl (centres undefined) | 7.6 | 40.3 | –
4 | CCCNC(=O)c1cc2c(cn1)sc1ccccc12 | 17.3 | 42 | –
5 | CC(=O)N1CCCN(C(=O)c2cc3c(cn2)sc2ccccc23)CC1.Cl | 22.2 | 55 | –
6 | Cl.O=C(c1cc2c(cn1)sc1ccccc12)N1CCCN(Cc2ccc(Cl)cc2)CC1 | 12.8 | 34.7 | –
7 | CCCOC(=O)c1cc2c(cn1)sc1ccccc12 | 9.6 | 22.1 | IC50 [3]: 1530 µM
8 | Cl.NCCCNC(=O)c1cc2c(cn1)sc1ccccc12 | 15.2 | 37.7 | –
9 | CN1CCN(C(=O)c2cc3c(cn2)sc2ccccc23)CC1.Cl | 3.3 | 44.2 | –
10 | O=C(c1cc2c(cn1)sc1ccccc12)N1CCCCC1 | 5 | 60.2 | –
11 | O=C(O)c1cc2c(cn1)sc1ccccc12 | 4 | 55.8 | –
12 | CC1CCCC(C)N1C(=O)c1cc2c(cn1)sc1ccccc12 (centres undefined) | 4.5 | – | –
13 | Cl.NCC(=O)N1CCCN(C(=O)c2cc3c(cn2)sc2ccccc23)CC1 | 14.1 | – | –
14 | CN(C)CCNC(=O)c1cc2c(cn1)sc1ccccc12.Cl | 9.6 | 64.5 | –
15 | CCOC(=O)C1Cc2c(sc3ccccc23)CN1C (centres undefined) | 22 | 32.9 | –
16 | Cl.O=C(c1cc2c(cn1)sc1ccccc12)N1CCCNCC1 | 21.8 | 38.9 | –
17 | COC(=O)C1Cc2c(sc3ccccc23)CN1 (centres undefined) | 17.9 | – | Activity [4]: 64.5
18 | Cl.NCCNC(=O)c1cc2c(cn1)sc1ccccc12 | 37.2 | 103.9 | No. of shocks [5]: 9.3; Antiamnesic activity [6]: 4; Antiamnesic activity [7]: 4; Antiamnesic activity [8]: 6; Anticonflict activity [9]: 4; No. of shocks [10]: 22; Activity [11]: 65.5; Anticonflict activity [12]: 2; Activity [13]: 125.1; Activity [14]: 106.7

Row | SMILES | Activity [1] | Activity [2] | further results
19 | CCOC(=O)C1Cc2c(sc3ccccc23)CN1C(=O)c1ccccc1Cl (centres undefined) | 2.5 | 28.1 | –
20 | O=C(c1cc2c(cn1)sc1ccccc12)N1CCOCC1 | 8.2 | 52.9 | –
21 | CCNC(=O)c1cc2c(cn1)sc1ccccc12 | 8.5 | 36.3 | –
22 | CNC(=O)c1cc2c(cn1)sc1ccccc12 | 8.4 | 28.6 | –
23 | CN1C(=O)CN=C(c2ccccc2)c2cc(Cl)ccc21 [DIAZEPAM] | – | – | Anticonflict activity [15]: 25; Antiamnesic activity [16]: 1; No. of shocks [17]: 22.7; Activity [18]: 39.4
24 | Cl.NCCCC(=O)N1CCCN(C(=O)c2cc3c(cn2)sc2ccccc23)CC1 | – | 51.9 | –
25 | COC(=O)c1cc2c(cn1)sc1ccccc12 | 8.5 | 31.6 | –
26 | CCOC(=O)c1cc2c(cn1)sc1ccccc12 | 10.7 | 11.3 | –
27 | CCOC(=O)C1Cc2c(sc3ccccc23)CN1C(=O)c1ccccc1 (centres undefined) | 6.3 | 35.1 | –
28 | NNC(=O)c1cc2c(cn1)sc1ccccc12 | 11.2 | 20.4 | –
29 | CCOC(=O)C1Cc2c(sc3ccccc23)CN1C(C)=O (centres undefined) | – | 37.3 | –
30 | O=C(NC1CCCCC1)C1Cc2c(sc3ccccc23)CN1 (centres undefined) | 36.9 | 120.4 | No. of shocks [19]: 15.5; IC50 [3]: 1600 µM; Antiamnesic activity [20]: 3; No. of shocks [21]: 26.9; No. of shocks [22]: 28.1; Anticonflict activity [23]: 3; Anticonflict activity [24]: 5; Ki [25]: 0.28 µM; Activity [26]: 85; Activity [11]: 67.5; Antiamnesic activity [27]: 1; Anticonflict activity [28]: 6
31 | NC(=O)c1cc2c(cn1)sc1ccccc12 | 17 | 24.7 | IC50 [3]: 1560 µM
32 | CCCOC(=O)C1Cc2c(sc3ccccc23)CN1 (centres undefined) | 14.5 | 57.2 | –
33 | CCOC(=O)C1Cc2c(sc3ccccc23)CN1 (centres undefined) | 27.2 | 90.5 | Antiamnesic activity [29]: 4; Antiamnesic activity [30]: 6; No. of shocks [19]: 16.1; IC50 [3]: 1500 µM; Anticonflict activity [31]: 8; Activity [32]: 129.9; No. of shocks [21]: 30.2; No. of shocks [22]: 29.3; Anticonflict activity [23]: 3; Anticonflict activity [33]: 6; Activity [26]: 110.1; Activity [11]: 68.8; Antiamnesic activity [34]: 2
34 | CCCCCCNC(=O)c1cc2c(cn1)sc1ccccc12 | 10.5 | 62.3 | –
35 | COC(=O)CCCNC(=O)c1cc2c(cn1)sc1ccccc12 | 9.9 | – | –
